Test results as given in patent US7837670B2, “Methods and devices for delivering therapeutic agents into the prostate gland” (Boston Scientific Scimed, Inc., priority 2005, dated 2010).

What was measured:
[1] = Parallel autoradiography of liver and urogenital organs to test for regurgitation or escape into the blood stream
[2] = Autoradiography of the prostate after transurethral catheter injection of tritium labeled agent
[3] = tested on: BPH; conditions: only after 6 months of oral treatment; cited from earlier work
[4] = 6 hours after transurethral injection of 150 uCi 3H-flutamide
[5] = 24 hours after transurethral injection of 150 uCi 3H-flutamide
[6] = 48 hours after transurethral injection of 150 uCi 3H-flutamide

## 3H-flutamide [tritium labeled flutamide]
[1]; all time points (1, 6, 12, 24, 48 hours)
  autoradiographic labeling of seminal vesicle, seminal duct and testicular samples: remained all negative
[1]; epididymis, 6 hours after transurethral injection of 150 uCi
  autoradiographic grains in the epididymis (regurgitation of the label): No grains are seen in the epididymis
[1]; liver, 48 hours after transurethral injection of 150 uCi
  autoradiographic grains in the liver (escape into systemic circulation): No grains are seen in the liver
[2]; 1 hour after transurethral injection of 150 uCi 3H-flutamide
  diffuse (non-nuclear, including stroma) activity in prostate: Strong, diffuse activity scattered over the whole prostate
[2]; [4]
  free (extra-nuclear) activity in prostate: periphery of the gland. Practically no free (extra-nuclear)
  glandular nuclear activity in prostate: Strong, selective glandular (but not stromal or muscular)
[2]; 12 hours after transurethral injection of 150 uCi 3H-flutamide
  glandular nuclear activity in prostate: Strong, selective glandular (but not stromal or muscular)
[2]; [5]
  nuclear binding in prostate: Strong nuclear binding
  unbound activity in prostate: minimal unbound activity scattered
[2]; [6]
  extra-nuclear labeling in prostate: covers the whole prostate, minimal scattered extra-nuclear
  glandular nuclear activity in prostate: Still strong, although somewhat less activity over the

## CC(C)(C)NC(=O)[C@H]1CC[C@H]2[C@@H]3CC[C@H]4NC(=O)C=C[C@]4(C)[C@H]3CC[C@]12C [finasteride]
[3]
  alleviation of BPH complaints, share of cases: about half of the cases
